Where two headings read alike, the source gives them in different places.
Assays:
[1] = test system: human liver cancer cell HepG2; assay: MTT anticancer assay, HepG2; assay type: cell-based; settings: 48 h exposure, mean ± SD, dash = footnote d 'None'
Procedure: (§1) The MTT was purchased from Sigma. Cell Cycle Analysis Kit and Apoptosis Analysis Kit were purchased from Bestbio (China). Mitochondrial membrane potential assay kit with JC-1 was purchased from Beyotime (China). All the materials were used as received without further purification unless noted specifically. The cell culture was maintained on DMEM medium (Hyclone, US) supplemented with 10% fetal bovine serum (Sijiqing, China), 100 U/mL penicillin and 100 µg/mL streptomycin in 25-cm^2 culture flasks at 37 °C humidified atmosphere with 5% CO2. Drugs were dissolved in DMSO and filtered through 0.22-µm pore-size filter units before addition to cell line appropriate media. When tumor cells were grown to log phase, diluting to 5 × 10^4 cells mL^−1 with the complete medium, 100 µL of the obtained cell suspension was added to each well of 96-well culture plates. The subsequent incubation was performed at 37 °C, 5% CO2 atmosphere for 48 h before subjecting to anti-proliferation assessment. After 48-h exposure period, 20 µL of PBS containing 5 mg·mL^−1 of MTT was added to each well. After 4 h, the medium was replaced by 150 µL DMSO to dissolve the purple formazan crystals produced. The absorbance at 492 nm of each well was measured on an ELISA plate reader. The data represented the mean of three experiments in triplicate and were expressed as means ± SD. The IC50 value was defined as the concentration at which 50% of the cells could survive. The following human tumor cell lines were used in the assay: human gastric cancer cells SGC-7901, human liver cancer cell SMMC-7721 and HepG2, human cervical cancer cell Hela and human glioma cell U87.

[2] = test system: human liver cancer cell SMMC-7721; assay: MTT anticancer assay, SMMC-7721; assay type: cell-based; settings: 48 h exposure, mean ± SD
Procedure: as §1

[3] = test system: human gastric cancer cells SGC-7901; assay: MTT anticancer assay, SGC-7901; assay type: cell-based; settings: for IC50: Homo sapiens, SGC-7901, MTT, 48 h exposure, mean ± SD
Procedure: as §1, with “The absorbance at 492 nm of each well was measured on an ELISA plate reader.” left out, “SD.” for “SD. The IC50 value was defined as the concentration at which 50% of the cells could survive. The following human tumor cell lines were used in the assay: human gastric cancer cells SGC-7901, human liver cancer cell SMMC-7721 and HepG2, human cervical cancer cell Hela and human glioma cell U87.”

[4] = test system: human cervical cancer cell Hela; assay: MTT anticancer assay, Hela; assay type: cell-based; settings: read-out: IC50 Hela
Procedure: as §1, with “The absorbance at 492 nm of each well was measured on an ELISA plate reader.” left out, “SD.” for “SD. The IC50 value was defined as the concentration at which 50% of the cells could survive. The following human tumor cell lines were used in the assay: human gastric cancer cells SGC-7901, human liver cancer cell SMMC-7721 and HepG2, human cervical cancer cell Hela and human glioma cell U87.”

[5] = test system: human glioma cell U87; assay: MTT anticancer assay, U87; assay type: cell-based; settings: 48 h exposure, mean ± SD, dash = footnote d 'None'
Procedure: as §1

[6] = target: T1, telomerase (Homo sapiens, UniProt O14746); assay: Telomerase activity assay (TRAP-PCR-ELISA); assay type: biochemical; settings: SGC-7901 cells extracts, 24-h treatment, mean ± SD
T1 construct: endogenous in cells; host or cells: SGC-7901
Procedure: Inhibit of telomerase activity was tested using the TRAP-PCR-ELISA assay. In detail, the SGC-7901 cells were firstly maintained in DMEM medium (GIBCO, New York) supplemented with 10% fetal bovineserum (GIBCO, NewYork), streptomycin (0.1 mg/mL) and penicillin (100 IU/mL) at 37 °C in a humidified atmosphere containing 5% CO2. After trypsinisation, 5 × 10^4 cultured cells in logarithmic growth were seeded into T25 flasks (Corning, New York) and cultured to allow to adherence. The cells were then incubated with Staurosporine (Santa Cruz, Santa Cruz) and the drugs with a series of concentration as 60, 20, 6.67, 2.22, 0.74, 0.25 and 0.082 l g/mL, respectively. After 24-h treatment, the cells were harvested by cell scraper orderly following by washed once with PBS. The cells were lysed in 150 µL RIPA cell lysis buffer (Santa Cruz, Santa Cruz) and incubated on ice for 30 min. The cellular supernatants were obtained via centrifugation at 12,000 g for 20 min at 4 °C and stored at −80 °C. The TRAP-PCR-ELISA assay was performed using a telomerase detection kit (Roche, Basel, Switzerland) according to the manufacturer’s protocol. In brief, 2 µL of cell extracts were mixed with 48 µL TRAP reaction mixtures. PCR was then initiated at 94 °C, 120 s for predenaturation and performed using 35 cycles each consisting of 94 °C for 30 s, 50 °C for 30 s, 72 °C for 90 s. Then 20 µL of PCR products were hybridised to a digoxigenin (DIG)-labeled telomeric repeat specific detection probe. And the PCR products were immobilised via the biotin-labeled primer to a streptavidin-coated microtiter plate subsequently. The immobilised DNA fragment were detected with a peroxidase-conjugated anti-DIG antibody and visualised following addition of the stop regent. The microtitre plate was assessed on TECAN Infinite M200 microplate reader (Mannedorf, Switzerland) at a wavelength of 490 nm, and the final value were presented as mean ± SD.

[7] = test system: human normal gastric mucosa cell (GES-1); assay: Proliferative inhibition of human normal cell (MTT); assay type: cell-based
Excerpt: In order to determine the selective cell toxicity of selected compounds. We subsequently conducted a proliferative inhibition assay with human normal gastric mucosa cell (GES-1).

[8] = Octanol water partition coefficient, shake flask; assay type: physicochemical; settings: octanol/PBS (pH 7.4), pH 7.4, shake flask, octanol/PBS pH 7.4, 37 °C, read-out: Log p (octanole water partition coefficient)
Procedure: Octanole water partition coefficients was measured by the method of shake flask with slight modification. The aqueous phase was replaced by PBS (pH 7.4). First, the phase of octanol and the aqueous were saturated with each other. Then, the mixture containing title compounds was shaken at 37 °C. After 24 h, the mixture was centrifuged at 4000 rpm for 30 min, followed by the measured with ultraviolet spectrophotometer. At last, logP values were calculated.

[9] = GES1, MTT, human normal gastric mucosa cell, read-out: GES-1 IC50

T1 sequence (O14746 whole entry): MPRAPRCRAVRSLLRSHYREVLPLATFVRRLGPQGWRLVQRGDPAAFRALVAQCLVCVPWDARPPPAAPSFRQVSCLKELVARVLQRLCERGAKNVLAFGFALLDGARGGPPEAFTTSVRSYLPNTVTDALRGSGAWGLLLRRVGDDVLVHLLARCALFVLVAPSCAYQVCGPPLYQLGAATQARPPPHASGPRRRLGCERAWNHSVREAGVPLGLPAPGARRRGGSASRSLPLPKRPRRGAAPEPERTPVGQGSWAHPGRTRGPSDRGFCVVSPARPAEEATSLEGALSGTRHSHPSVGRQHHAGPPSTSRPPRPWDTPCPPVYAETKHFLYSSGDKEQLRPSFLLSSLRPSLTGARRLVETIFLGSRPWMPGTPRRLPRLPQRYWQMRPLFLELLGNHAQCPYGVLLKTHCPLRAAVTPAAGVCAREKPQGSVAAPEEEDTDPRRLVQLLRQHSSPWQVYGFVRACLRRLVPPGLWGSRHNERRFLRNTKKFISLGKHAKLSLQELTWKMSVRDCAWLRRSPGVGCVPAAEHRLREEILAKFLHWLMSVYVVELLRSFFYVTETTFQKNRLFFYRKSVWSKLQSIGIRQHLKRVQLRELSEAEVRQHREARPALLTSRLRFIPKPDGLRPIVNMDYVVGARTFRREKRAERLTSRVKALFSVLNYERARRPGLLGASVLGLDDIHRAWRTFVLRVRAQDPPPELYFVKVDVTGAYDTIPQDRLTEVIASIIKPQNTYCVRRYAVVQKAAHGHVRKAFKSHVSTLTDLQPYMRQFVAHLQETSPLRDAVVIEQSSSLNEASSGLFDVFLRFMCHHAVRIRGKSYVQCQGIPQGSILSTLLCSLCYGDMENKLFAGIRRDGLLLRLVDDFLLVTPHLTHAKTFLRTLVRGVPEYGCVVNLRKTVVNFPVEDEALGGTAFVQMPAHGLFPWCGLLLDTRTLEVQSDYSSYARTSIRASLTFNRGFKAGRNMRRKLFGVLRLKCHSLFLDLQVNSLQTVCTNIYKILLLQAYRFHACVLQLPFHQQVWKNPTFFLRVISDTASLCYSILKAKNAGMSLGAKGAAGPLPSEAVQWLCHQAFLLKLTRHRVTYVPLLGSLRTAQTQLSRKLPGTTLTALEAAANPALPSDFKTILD
T1 sequence (O60832 whole entry partner): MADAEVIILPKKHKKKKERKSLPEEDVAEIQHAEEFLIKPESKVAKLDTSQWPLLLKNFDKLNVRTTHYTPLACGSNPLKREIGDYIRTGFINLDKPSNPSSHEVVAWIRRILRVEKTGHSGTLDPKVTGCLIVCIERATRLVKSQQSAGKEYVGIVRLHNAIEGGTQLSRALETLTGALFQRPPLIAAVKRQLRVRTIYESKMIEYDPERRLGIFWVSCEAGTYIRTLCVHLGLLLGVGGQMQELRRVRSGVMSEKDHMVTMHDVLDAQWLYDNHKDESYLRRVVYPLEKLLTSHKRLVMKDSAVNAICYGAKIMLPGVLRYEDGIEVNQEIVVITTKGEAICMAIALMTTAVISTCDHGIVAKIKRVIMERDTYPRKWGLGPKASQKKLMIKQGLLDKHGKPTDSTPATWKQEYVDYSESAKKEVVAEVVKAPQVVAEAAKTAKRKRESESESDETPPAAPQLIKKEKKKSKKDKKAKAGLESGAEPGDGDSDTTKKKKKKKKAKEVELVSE
T1 sequence (Q9NX24 whole entry partner): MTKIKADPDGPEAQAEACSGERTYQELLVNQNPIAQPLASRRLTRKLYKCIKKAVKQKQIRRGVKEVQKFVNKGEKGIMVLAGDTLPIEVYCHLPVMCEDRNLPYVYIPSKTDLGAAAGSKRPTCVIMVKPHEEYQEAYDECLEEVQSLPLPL
T1 sequence (Q9NPE3 whole entry partner): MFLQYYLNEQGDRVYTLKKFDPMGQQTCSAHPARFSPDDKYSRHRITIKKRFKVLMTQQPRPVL
T1 sequence (Q9NY12 whole entry partner): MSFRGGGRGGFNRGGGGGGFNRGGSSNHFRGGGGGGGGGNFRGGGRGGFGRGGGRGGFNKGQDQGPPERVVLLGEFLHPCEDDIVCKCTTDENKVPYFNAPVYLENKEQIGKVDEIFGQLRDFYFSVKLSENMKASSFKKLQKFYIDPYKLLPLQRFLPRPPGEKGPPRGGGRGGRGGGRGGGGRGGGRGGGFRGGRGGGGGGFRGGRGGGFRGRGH

## COc1cccc2c1C(=O)c1c(O)c3c(c(O)c1C2=O)C[C@@](O)(C(=O)CO)C[C@@H]3O[C@H]1C[C@H](N)[C@H](O)[C@H](C)O1 [ADM, doxorubicin, reference compound]
[1]
  IC50: 2.87 ± 0.21 µM
[2]
  IC50: 0.81 ± 0.06 µM
[3]
  IC50: 0.98 ± 0.27 µM
[4]; 48 h
  IC50: 0.21 ± 0.03 µM
[5]
  IC50: 2.24 ± 0.12 µM

## COc1cc(OC)c2c(=O)c(OCCCCN3CCN(C(=O)c4ccc(F)cc4F)CC3)c(-c3cc(OC)c(OC)c(OC)c3)oc2c1 [Compound 5a]
[6]
  IC50: 11.3 ± 0.99 µM
[1]
  IC50: 33.4 ± 1.56 µM
[2]
  IC50: 28 ± 0.98 µM
[3]
  IC50: 16.6 ± 1.32 µM
[4]; MTT, 48 h exposure, mean ± SD
  IC50: 25.5 ± 1.02 µM
[7]; [9]
  IC50: 4180 ± 600 µM
[5]
  IC50: 16.6 ± 1.95 µM

## COc1cc(OC)c2c(=O)c(OCCCCN3CCN(C(=O)c4c(F)cccc4F)CC3)c(-c3cc(OC)c(OC)c(OC)c3)oc2c1 [Compound 5b]
[1]
  IC50: 23.4 ± 1.23 µM
[2]
  IC50: 17 ± 0.99 µM
[3]
  IC50: 10.5 ± 1.08 µM
[4]; MTT, 48 h exposure, mean ± SD
  IC50: 11.3 ± 0.85 µM
[5]
  IC50: > 60 µM

## COc1cc(OC)c2c(=O)c(OCCCCN3CCN(C(=O)c4c(F)cccc4Cl)CC3)c(-c3cc(OC)c(OC)c(OC)c3)oc2c1 [Compound 5c]
[1]
  IC50: 28 ± 1.84 µM
[2]
  IC50: 15.9 ± 1.01 µM
[3]
  IC50: 9.31 ± 1.05 µM
[4]; MTT, 48 h exposure, mean ± SD
  IC50: 9.77 ± 0.62 µM
[5]
  IC50: 25.4 ± 1.55 µM

## COc1cc(OC)c2c(=O)c(OCCCCN3CCN(C(=O)c4cccc(F)c4)CC3)c(-c3cc(OC)c(OC)c(OC)c3)oc2c1 [Compound 5d]
[1]
  IC50: 35.5 ± 1.65 µM
[2]
  IC50: 32 ± 1.53 µM
[3]
  IC50: 18.5 ± 0.89 µM
[4]; MTT, 48 h exposure, mean ± SD
  IC50: 31.4 ± 1.73 µM
[5]
  IC50: > 60 µM

## COc1cc(OC)c2c(=O)c(OCCCCN3CCN(C(=O)c4ccccc4[N+](=O)[O-])CC3)c(-c3cc(OC)c(OC)c(OC)c3)oc2c1 [Compound 5e]
[6]
  IC50: 13.3 ± 1.25 µM
[1]
  IC50: > 60 µM
[2]
  IC50: 31.3 ± 1.63 µM
[3]
  IC50: 13.2 ± 0.88 µM
[4]; MTT, 48 h exposure, mean ± SD
  IC50: 25.1 ± 1.5 µM
[7]; [9]
  IC50: 10000 ± 1220 µM
[5]
  IC50: > 60 µM

## COc1cc(OC)c2c(=O)c(OCCCCN3CCN(C(=O)c4ccc(C(F)(F)F)cc4)CC3)c(-c3cc(OC)c(OC)c(OC)c3)oc2c1 [Compound 5f]
[1]
  IC50: 37.4 ± 1.69 µM
[2]
  IC50: 24.2 ± 1.44 µM
[3]
  activity against SGC-7901 cells (in words): good activity
  IC50: 6.97 ± 0.85 µM
[4]; MTT, 48 h exposure, mean ± SD
  IC50: 14.4 ± 0.8 µM
[7]; [9]
  IC50: 2980 ± 550 µM
[8]
  logP at 24 h: 3.35
[5]
  IC50: 18 ± 0.66 µM

## COc1cc(OC)c2c(=O)c(OCCCCN3CCN(C(=O)c4ccc([N+](=O)[O-])cc4)CC3)c(-c3cc(OC)c(OC)c(OC)c3)oc2c1 [Compound 5g]
[1]
  IC50: 40.5 ± 1.95 µM
[2]
  IC50: 23.2 ± 1.83 µM
[3]
  IC50: 10.5 ± 1.01 µM
[4]; MTT, 48 h exposure, mean ± SD
  IC50: 17 ± 1.51 µM
[5]
  IC50: 21.6 ± 0.9 µM

## COc1cc(OC)c2c(=O)c(OCCCCN3CCN(C(=O)c4ccc(Cl)cc4)CC3)c(-c3cc(OC)c(OC)c(OC)c3)oc2c1 [Compound 5h]
[1]
  IC50: 35.3 ± 1.97 µM
[2]
  IC50: 14.1 ± 1.27 µM
[3]
  IC50: 9.22 ± 1 µM
[4]; MTT, 48 h exposure, mean ± SD
  IC50: 22.4 ± 0.87 µM
[5]
  IC50: 25.6 ± 1.4 µM

## COc1cc(OC)c2c(=O)c(OCCCCN3CCN(C(=O)c4ccccc4)CC3)c(-c3cc(OC)c(OC)c(OC)c3)oc2c1 [Compound 5j]
[1]
  IC50: > 60 µM
[2]
  IC50: 7.29 ± 0.82 µM
[3]
  activity against SGC-7901 cells (in words): good activity
  IC50: 7.56 ± 1.01 µM
[4]; MTT, 48 h exposure, mean ± SD
  IC50: 8.3 ± 0.3 µM
[8]
  logP at 24 h: 3.01
[5]
  IC50: 20.3 ± 1.25 µM

## COc1cc(OC)c2c(=O)c(OCCCCN3CCN(C(=O)c4cc([N+](=O)[O-])cc([N+](=O)[O-])c4)CC3)c(-c3cc(OC)c(OC)c(OC)c3)oc2c1 [Compound 5k]
[6]
  IC50: 1.44 ± 0.28 µM
[1]
  IC50: 21.2 ± 1.53 µM
[2]
  IC50: 4.01 ± 0.38 µM
[3]
  activity against SGC-7901 cells (in words): good activity
  IC50: 5.12 ± 0.5 µM
[4]; MTT, 48 h exposure, mean ± SD
  IC50: 2.94 ± 0.25 µM
[7]; Homo sapiens, GES1, read-out: GES-1 IC50
  IC50: 2550 ± 380 µM
[5]
  IC50: 8.14 ± 0.22 µM

## COc1cc(OC)c2c(=O)c(OCCCCN3CCN(C(=O)c4cc(Cl)ccc4[N+](=O)[O-])CC3)c(-c3cc(OC)c(OC)c(OC)c3)oc2c1 [Compound 5l]
[1]
  IC50: 29.1 ± 1.75 µM
[2]
  IC50: 5.2 ± 0.87 µM
[3]
  activity against SGC-7901 cells (in words): good activity
  IC50: 5.81 ± 1.01 µM
[4]; MTT, 48 h exposure, mean ± SD
  IC50: 3.8 ± 0.31 µM
[8]
  logP at 24 h: 4.82
[5]
  IC50: 16.2 ± 1.45 µM

From PMC6104605, “Discovery of new chromen-4-one derivatives as telomerase inhibitors through regulating expression of dyskerin” (Journal of Enzyme Inhibition and Medicinal Chemistry, 2018)
